Data on 39 compounds can be found in patent publication US20260026504A1, “COMPOUND […] STRUCTURE, APPLICATION, AND INSECTICIDE” (Anhui Shengfeng Biochemical Co., Ltd, priority 2022, published 2026).

Like-named read-outs stand apart in the source and are kept apart here.

The data set concerns diamondback moth (Plutella xylostella) second instar larvae. In words: Toxicity to diamondback moth larvae by the leaf-dipping method. It counts as in vivo. The following applies: corrected mortality grade, 1 ppm, cabbage leaf dip; for mortality at 1 ppm: Plutella xylostella, in Brassica oleracea, foliar. As to the method:
Determining the toxicity activity of part of compounds on diamondback moth (Plutella xylostella) instar larvae by the leafdipping method.
The test agents of the compounds in Table 2 were weighed out accurately with an electronic analytical balance, and the original drug was dissolved in a 10000 ppm solution with dimethyl sulfoxide as the solvent and then diluted with 0.1% of Triton solution to 1 ppm and 0.25 ppm solutions. Taking the cabbage not contacted with the liquid medicine, and cutting the leaves into 6 cm-diameter circular leaves. Soaking the leaves in the prepared liquid medicine for 15 seconds, taking out and drying, and placing the leaves into 6 cm culture dishes, wherein 1 cabbage leaf is placed in each culture dish. The same standard second instar larvae were placed in petri dishes with 10 heads per dish and 4 replicates per concentration for a total of 40 heads. After inoculation, the culture dish is placed in a constant-temperature culture chamber with the temperature of 25±1° C. and the illumination period of 16 (D) to 8 (L) h, and the number of dead and live larvae is investigated after 48 h and 72 h. A blank and a control of compound K1 and compound K2 were also provided.
The mortality is calculated according to the following formula 1, then the corrected mortality is calculated according to the formula 2, and finally the classification is carried out according to the corrected mortality value and the rating standard shown in the table 2, and the specific results are shown in the tables 3 and 4.
mortality %=(number of dead insects/total number of insects)×100% Equation 1;
corrected mortality %=[(treatment-control mortality)/(1-control mortality)]×100% Equation 2.

The mark [1] stands for this setting: 72 h, 72 h, read-out: mortality (1 ppm) 72 h.
Setting [2] is: 48 h, 48 h, read-out: mortality (1 ppm) 48 h.

In the case of `CCC(=O)n1nc(C)c(NC(=O)c2ccc(C3=NOC(c4cc(Cl)c(F)c(Cl)c4)(C(F)(F)F)C3)cc2C)c1C` (stereo not drawn) [Compound 169], the mortality (usually the percentage killed) at 1 ppm under setting [1] lay within 80 to 90%.
Turning to `Cc1cc(C2=NOC(c3cc(Cl)cc(Cl)c3)(C(F)(F)F)C2)ccc1C(=O)Nc1cnn(S(=O)(=O)C2CCCCC2)c1` (stereo not drawn) [Compound 75], the mortality at 1 ppm is 90 to 100% under setting [2] and 90 to 100% under setting [1].
With `Cc1cc(C2=NOC(c3cc(Cl)cc(Cl)c3)(C(F)(F)F)C2)ccc1C(=O)Nc1cnn(-c2cccc(F)c2)c1` (stereo not drawn) [Compound 47], the mortality at 1 ppm under setting [1] lay within 50 to 70%.
Turning to `Cc1cc(C2=NOC(c3cc(Cl)cc(Cl)c3)(C(F)(F)F)C2)ccc1C(=O)Nc1cnn(CC(F)(F)F)c1` (stereo not drawn) [Compound 7], the mortality at 1 ppm under setting [1] was 80 to 90%.
On the same count and under the same terms, the value for `Cc1cc(C2=NOC(c3cc(Cl)cc(Cl)c3)(C(F)(F)F)C2)ccc1C(=O)Nc1cnn(C(=O)N(C)C)c1` (stereo not drawn) [Compound 67] was 90 to 100%; that for `Cc1cc(C2=NOC(c3cc(Cl)cc(Cl)c3)(C(F)(F)F)C2)ccc1C(=O)Nc1cnn(S(=O)(=O)c2ccccc2)c1` (stereo not drawn) [Compound 73] was 50 to 70%; that for `COc1cccc(-n2cc(NC(=O)c3ccc(C4=NOC(c5cc(Cl)cc(Cl)c5)(C(F)(F)F)C4)cc3C)cn2)c1` (stereo not drawn) [Compound 51] was 50 to 70%.
Turning to `Cc1cc(C2=NOC(c3cc(Cl)c(F)c(Cl)c3)(C(F)(F)F)C2)ccc1C(=O)Nc1cnn(S(C)(=O)=O)c1` (stereo not drawn) [Compound 151], the mortality at 1 ppm under setting [1] fell in the range of 70 to 80%.
For `CCCn1nc(C)c(NC(=O)c2ccc(C3=NOC(c4cc(Cl)c(F)c(Cl)c4)(C(F)(F)F)C3)cc2C)c1C` (stereo not drawn) [Compound 161], the mortality at 1 ppm under setting [1] is 90 to 100%.
For `CCn1nc(C)c(NC(=O)c2ccc(C3=NOC(c4cc(Cl)cc(Cl)c4)(C(F)(F)F)C3)cc2C)c1C` (stereo not drawn) [Compound 97], the mortality at 1 ppm under setting [1] lay within 80 to 90%.
Consider `Cc1cc(C2=NOC(c3cc(Cl)c(F)c(Cl)c3)(C(F)(F)F)C2)ccc1C(=O)Nc1cnn(S(=O)(=O)C2CCCCC2)c1` (stereo not drawn) [Compound 157], for which the mortality at 1 ppm was 90 to 100% under setting [2] and 100% under setting [1].
Regarding `Cc1cc(C2=NOC(c3cc(Cl)cc(Cl)c3)(C(F)(F)F)C2)ccc1C(=O)Nc1cnn(CC2CCCCC2)c1` (stereo not drawn) [Compound 33], the mortality at 1 ppm under setting [1] fell in the range of 50 to 70%.
Still for that read-out and setting: the value for `Cc1cc(C2=NOC(c3cc(Cl)cc(Cl)c3)(C(F)(F)F)C2)ccc1C(=O)Nc1cnn(C2CCC2)c1` (stereo not drawn) [Compound 24] was 50 to 70%.
Consider `CCC(=O)n1cc(NC(=O)c2ccc(C3=NOC(c4cc(Cl)cc(Cl)c4)(C(F)(F)F)C3)cc2C)cn1` (stereo not drawn) [Compound 59], for which the mortality at 1 ppm under setting [1] was 50 to 70%.
Regarding `Cc1cc(C2=NOC(c3cc(Cl)c(F)c(Cl)c3)(C(F)(F)F)C2)ccc1C(=O)Nc1c(C)nn(C(=O)C2CCC2)c1C` (stereo not drawn) [Compound 174], the mortality at 1 ppm under setting [1] was 70 to 80%.
For the compound `Cc1cc(C2=NOC(c3cc(Cl)c(F)c(Cl)c3)(C(F)(F)F)C2)ccc1C(=O)Nc1cnn(CC2CC2)c1` (stereo not drawn) [Compound 133], the mortality at 1 ppm by setting is: under setting [2], 80 to 90%; under setting [1], 100%.
In the case of `Cc1cc(C2=NOC(c3cc(Cl)cc(Cl)c3)(C(F)(F)F)C2)ccc1C(=O)Nc1cnn(-c2ccccc2Br)c1` (stereo not drawn) [Compound 44], the mortality at 1 ppm under setting [1] lay in the range of 50 to 70%.
The same measure, in the same setting: under `Cc1cc(C2=NOC(c3cc(Cl)cc(Cl)c3)(C(F)(F)F)C2)ccc1C(=O)Nc1cnn(C2CCOC2)c1` (stereo not drawn) [Compound 39] stands 50 to 70%; under `CCC(CC)n1nc(C)c(NC(=O)c2ccc(C3=NOC(c4cc(Cl)cc(Cl)c4)(C(F)(F)F)C3)cc2C)c1C` (stereo not drawn) [Compound 102], 50 to 70%; under `CCCC(=O)n1nc(C)c(NC(=O)c2ccc(C3=NOC(c4cc(Cl)c(F)c(Cl)c4)(C(F)(F)F)C3)cc2C)c1C` (stereo not drawn) [Compound 170], 80 to 90%.
For `Cc1cc(C2=NOC(c3cc(Cl)c(F)c(Cl)c3)(C(F)(F)F)C2)ccc1C(=O)Nc1cnn(S(=O)(=O)c2ccccc2)c1` (stereo not drawn) [Compound 155], under setting [1], the mortality at 1 ppm fell in the range of 50 to 70%.
In the case of `Cc1cc(C2=NOC(c3cc(Cl)c(F)c(Cl)c3)(C(F)(F)F)C2)ccc1C(=O)Nc1cnn(C2CCCC2)c1` (stereo not drawn) [Compound 131], the mortality at 1 ppm reads like this: under setting [2], 80 to 90%; under setting [1], 100%.
Consider `Cc1cc(C2=NOC(c3cc(Cl)c(F)c(Cl)c3)(C(F)(F)F)C2)ccc1C(=O)Nc1cnn(CC2CCC2)c1` (stereo not drawn) [Compound 134], for which the mortality at 1 ppm under setting [1] fell in the range of 70 to 80%.
On to `CC(=O)n1nc(C)c(NC(=O)c2ccc(C3=NOC(c4cc(Cl)c(F)c(Cl)c4)(C(F)(F)F)C3)cc2C)c1C` (stereo not drawn) [Compound 168], for which the mortality at 1 ppm under setting [1] is 90 to 100%.
As to `Cc1cc(C2=NOC(c3cc(Cl)c(F)c(Cl)c3)(C(F)(F)F)C2)ccc1C(=O)Nc1c(C)nn(C(=O)N(C)C)c1C` (stereo not drawn) [Compound 177], the mortality at 1 ppm under setting [1] is 80 to 90%.
Consider `CCn1cc(NC(=O)c2ccc(C3=NOC(c4cc(Cl)c(F)c(Cl)c4)(C(F)(F)F)C3)cc2C)cn1` (stereo not drawn) [Compound 125], for which the mortality at 1 ppm by setting is: under setting [2], 100%; under setting [1], 100%.
With `CCCS(=O)(=O)n1cc(NC(=O)c2ccc(C3=NOC(c4cc(Cl)c(F)c(Cl)c4)(C(F)(F)F)C3)cc2C)cn1` (stereo not drawn) [Compound 153], the mortality at 1 ppm reads like this: under setting [2], 70 to 80%; under setting [1], 90 to 100%.
For `Cc1cc(C2=NOC(c3cc(Cl)c(F)c(Cl)c3)(C(F)(F)F)C2)ccc1C(=O)Nc1c(C)nn(C)c1C` (stereo not drawn) [Compound 159], the “mortality (1 ppm) 72 h” value (72 h) is “B (90% to less than 100%)”.
Consider `Cc1cc(C2=NOC(c3cc(Cl)cc(Cl)c3)(C(F)(F)F)C2)ccc1C(=O)Nc1cnn(CCC(F)(F)F)c1` (stereo not drawn) [Compound 10], for which the mortality at 1 ppm reads like this: under setting [2], 50 to 70%; under setting [1], 100%.
For the compound `Cc1cc(C2=NOC(c3cc(Cl)cc(Cl)c3)(C(F)(F)F)C2)ccc1C(=O)Nc1cnn(-c2ccc(F)cc2)c1` (stereo not drawn) [Compound 52], under setting [1], the mortality at 1 ppm was in the range of 50 to 70%.
Regarding `CCCn1cc(NC(=O)c2ccc(C3=NOC(c4cc(Cl)cc(Cl)c4)(C(F)(F)F)C3)cc2C)cn1` (stereo not drawn) [Compound 4], the mortality at 1 ppm is 50 to 70% under setting [2] and 50 to 70% under setting [1].
As for `Cc1cc(C2=NOC(c3cc(Cl)cc(Cl)c3)(C(F)(F)F)C2)ccc1C(=O)Nc1cnn(C)c1` (stereo not drawn) [Compound 2], the mortality at 1 ppm runs as follows: under setting [2], 80 to 90%; under setting [1], 100%.
On to `Cc1cc(C2=NOC(c3cc(Cl)c(F)c(Cl)c3)(C(F)(F)F)C2)ccc1C(=O)Nc1cn[nH]c1` (stereo not drawn) [Compound 123], for which the mortality at 1 ppm is 90 to 100% under setting [2] and 100% under setting [1].
Take `CCCS(=O)(=O)n1cc(NC(=O)c2ccc(C3=NOC(c4cc(Cl)cc(Cl)c4)(C(F)(F)F)C3)cc2C)cn1` (stereo not drawn) [Compound 71]: the mortality at 1 ppm under setting [1] lay within 70 to 80%.
Turning to `Cc1cc(C2=NOC(c3cc(Cl)c(F)c(Cl)c3)(C(F)(F)F)C2)ccc1C(=O)Nc1cnn(C(=O)N(C)C)c1` (stereo not drawn) [Compound 149], the mortality at 1 ppm under setting [2] is 100% and the mortality at 1 ppm under setting [1] worked out at 100%.
Consider `Cc1cc(C2=NOC(c3cc(Cl)c(F)c(Cl)c3)(C(F)(F)F)C2)ccc1C(=O)Nc1c(C)nn(C(=O)C(C)C)c1C` (stereo not drawn) [Compound 171], for which the mortality at 1 ppm under setting [1] fell in the range of 80 to 90%.
Still for that read-out and setting: the value for `Cc1cc(C2=NOC(c3cc(Cl)cc(Cl)c3)(C(F)(F)F)C2)ccc1C(=O)Nc1cnn(S(=O)(=O)C(C)C)c1` (stereo not drawn) [Compound 72] was 50 to 70%.
In the case of `COCn1cc(NC(=O)c2ccc(C3=NOC(c4cc(Cl)cc(Cl)c4)(C(F)(F)F)C3)cc2C)cn1` (stereo not drawn) [Compound 12], the mortality at 1 ppm under setting [2] lay within 50 to 70% and the mortality at 1 ppm under setting [1] lay within 50 to 70%.
Take `Cc1cc(C2=NOC(c3cc(Cl)cc(Cl)c3)(C(F)(F)F)C2)ccc1C(=O)Nc1c(C)nn(Cc2ccccc2)c1C` (stereo not drawn) [Compound 104]: the mortality at 1 ppm under setting [1] lay in the range of 50 to 70%.
